Data reported in BindingDB's records for doi:10.1021/jm9603274 (R. W. Johnson Pharmaceutical Research Institute, 1996).

Assay: Inhibitory activity against thrombin induced platelet aggregation

| IC50 [nM] | SMILES |
| --- | --- |
| 23 | CN[C@H](Cc1ccccc1)C(=O)N1CCC[C@H]1C(=O)N[C@H](C=O)CCCN=C(N)N [1-(2-Methylamino-3-phenyl-propionyl)-pyrrolidine-2-carboxylic acid (1-formyl-4-guanidino-butyl)-amide] |
| 23 | CN[C@H](Cc1ccccc1)C(=O)N1CCC[C@H]1C(=O)N[C@@H](CCCN=C(N)N)C(=O)c1nc2ccccc2s1 [RWJ-50353] |
